Reference: patent US7897602B2, “Indolinone compounds as kinase inhibitors” (Development Center for Biotechnology, priority 2009, dated 2011)

What was measured:
[1] = target: T1, PDGFR-β kinase (Homo sapiens, UniProt P09619); assay: PDGFR-β kinase assay (33P incorporation into Poly(Glu-Tyr)); type: biochemical; settings: 500 nM test compound
T1 construct: recombinant N-terminal 6×His-tagged PDGFR-β kinase domain construct expressed by baculovirus; 6xHis (N); made in house
Outline: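 His-tagged PDGFR-β kinase domain (55 ng) with Poly(Glu-Tyr) 4:1, 30 μM ATP plus [33P]-γ-ATP, pH 7.0 MnCl2 buffer, and 500 nM compound for 30 min at 30° C. Filter-bound radioactivity counted; inhibition computed relative to DMSO control.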

[2] = target: T2, Flt3 kinase (Homo sapiens, UniProt P36888); assay: Flt3 kinase assay (33P incorporation into Poly(Glu-Tyr)); type: biochemical; settings: 100 nM test compound; read-out: Inhibition at 100 nM (%) Flt-3
T2 construct: recombinant N-terminal 6×His-tagged Flt3 kinase domain construct expressed from baculovirus; 6xHis (N); made in house
T2 sequence (P36888 610-943 limits assumed): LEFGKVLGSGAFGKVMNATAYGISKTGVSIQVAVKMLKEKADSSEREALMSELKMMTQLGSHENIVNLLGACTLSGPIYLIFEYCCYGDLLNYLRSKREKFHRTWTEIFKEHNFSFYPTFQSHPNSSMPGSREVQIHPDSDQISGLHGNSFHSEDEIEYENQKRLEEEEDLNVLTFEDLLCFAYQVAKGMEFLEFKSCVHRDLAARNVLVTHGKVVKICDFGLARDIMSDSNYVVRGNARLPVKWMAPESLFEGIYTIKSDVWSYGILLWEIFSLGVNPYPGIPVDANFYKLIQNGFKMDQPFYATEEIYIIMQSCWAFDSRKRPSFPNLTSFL
Outline: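 Baculovirus-expressed His-tagged Flt3 kinase domain (5 ng) with Poly(Glu-Tyr) 4:1 substrate, 100 μM ATP plus [33P]-γ-ATP, in MOPS pH 7.0 buffer, 30 min at 30 °C. Compound tested at a single 100 nM concentration; filter-bound radioactivity counted and percent inhibition calculated relative to DMSO control.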

T1 sequence (P09619 600-962 limits assumed): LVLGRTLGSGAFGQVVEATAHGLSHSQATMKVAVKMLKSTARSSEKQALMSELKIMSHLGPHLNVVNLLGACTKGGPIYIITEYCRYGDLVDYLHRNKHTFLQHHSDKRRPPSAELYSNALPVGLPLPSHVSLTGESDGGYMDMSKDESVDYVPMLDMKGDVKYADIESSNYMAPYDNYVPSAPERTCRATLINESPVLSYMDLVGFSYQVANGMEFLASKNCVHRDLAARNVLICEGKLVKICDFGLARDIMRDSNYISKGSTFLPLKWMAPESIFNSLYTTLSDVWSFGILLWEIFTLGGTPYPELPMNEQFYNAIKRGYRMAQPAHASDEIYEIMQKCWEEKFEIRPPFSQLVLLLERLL

SMILES	inhibition at 0.5 µM [1] [%]	inhibition at 0.1 µM [2] [%]
COc1ccc(C(=O)Nc2ccc3c(c2)/C(=C/c2[nH]c4c(c2CCC(=O)O)C(=O)CCC4)C(=O)N3)cc1 [DCB-70143, (Z)-3-(2-((5-(4-methoxybenzamido)-2-oxoindolin-3-ylidene)methyl)-4-oxo-4,5,6,7-tetrahydro-1H-indol-3-yl)propanoic acid]	1	6
CCOC(=O)CCc1c(/C=C2\C(=O)Nc3ccc(NC(=O)c4ccc(OC)cc4)cc32)[nH]c2c1C(=O)CCC2 [DCB-70141, (Z)-ethyl 3-(2-((5-(4-methoxybenzamido)-2-oxoindolin-3-ylidene)methyl)-4-oxo-4,5,6,7-tetrahydro-1H-indol-3-yl)propanoate]	1.4	10.7
O=C(O)CCc1c(/C=C2\C(=O)Nc3ccc(S(=O)(=O)Nc4ccc(F)c(Cl)c4)cc32)[nH]c2c1C(=O)CCCC2 [DCB-70149, (Z)-3-(2-((5-(N-(3-chloro-4-fluorophenyl)sulfamoyl)-2-oxoindolin-3-ylidene)methyl)-4-oxo-1,4,5,6,7,8-hexahydrocyclohepta[b]pyrrol-3-yl)propanoic acid]	10.8	7.3
CN(c1cccc(Cl)c1)S(=O)(=O)c1ccc2c(c1)/C(=C/c1[nH]c3c(c1CCC(=O)O)C(=O)CCCC3)C(=O)N2 [DCB-70148, (Z)-3-(2-((5-(N-(3-chlorophenyl)-N-methylsulfamoyl)-2-oxoindolin-3-ylidene)methyl)-4-oxo-1,4,5,6,7,8-hexahydrocyclohepta[b]pyrrol-3-yl)propanoic acid]	16.1	9.7
